How the values were obtained:
[1] = test system: canarygrass (Phalaris minor); assay: Test A pre-/postemergence plant response; type: in vivo
Procedure, shortened: (§1)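 Scores reflect visual plant injury relative to untreated controls on a 0–100 scale, recorded approximately 10 days after simultaneous preemergence soil spraying and postemergence spraying of one- to two-leaf seedlings grown in loam–sand.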

[2] = test system: blackgrass (Alopecurus myosuroides); assay: Test A pre-/postemergence plant response; type: in vivo
Procedure, shortened: as §1

[3] = Postemergence, 31 g ai/ha, 0 to 100 scale, 0 no effect, 100 complete control
[4] = Postemergence, 125 g ai/ha, 0 to 100 scale, 0 no effect, 100 complete control
[5] = Preemergence, 31 g ai/ha, 0 to 100 scale, 0 is no effect, 100 is complete control
[6] = Preemergence, 125 g ai/ha, 0 to 100 scale (0 no effect, 100 complete control)

Row | Compound | Plant response rating, Canarygrass [1, 3] | Plant response rating, Canarygrass [1, 4] | Plant response rating, Canarygrass [1, 5] | Plant response rating, Blackgrass [2, 3] | Plant response rating, Blackgrass [2, 4] | Plant response rating, Blackgrass [2, 5] | Plant response rating, Blackgrass [2, 6] | Plant response rating, Canarygrass [1, 6]
1 | CCc1cc(-c2ccc(Br)cc2)nn1-c1c(O)cnn(CC(F)(F)F)c1=O [Compound 73] | 20 | 100 | 30 | 90 | 90 | 60 | 90 | 
2 | CCCc1cc(-c2ccc(C(F)(F)F)cc2)nn1-c1c(O)cnn(C)c1=O [Compound 72] | 40 | 100 | 50 | 80 | 100 | 70 | 100 | 80
3 | CCCc1cc(-c2ccc(Cl)cc2)nn1-c1c(O)cnn(C)c1=O [Compound 76] | 40 | 100 | 30 | 90 | 100 |  | 90 | 70

Reference: patent publication US20100267561A1, “HERBICIDAL PYRIDAZINONE DERIVATIVES” (priority 2007, published 2010)
